# Measurements from patent US20250176550A1, “HERBICIDE COMPOSITION OF URACIL COMPOUND CONTAINING CARBOXYLATE FRAGMENT AND THE USE THEREOF” (Jiangsu Flag Chemical Industry Co., Ltd., priority 2022, published 2025).
# Key:
# Assay in all cases: Indoor virulence and combined effect, greenhouse pot test, post-emergence stem and leaf spray, fresh weight inhibition
# Type in all cases: in vivo
# alopecurus japonicus = details: Table 7, post-emergence, 21 days after treatment
# Procedure, shortened: (§1)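 Weeds in greenhouse pots received a spray-tower treatment, either post-emergence at the 3–4 leaf (grasses) or 4–6 leaf (broadleaf) stage, or pre-emergence as a soil spray 24 h after sowing. Compounds were applied in acetone diluted with 0.1 wt% Tween-80 water, alone or mixed, in g/ha. Fresh weight inhibition was measured at 21 days, with synergy judged by Gowing expected efficacy (E−E0 >10%).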
# digitaria sanguinalis = tested on: digitaria sanguinalis
# Procedure, shortened: as §1
# eleusine indica = details: Table 30
# Procedure, shortened: as §1
# lolium multiflorum = tested on: lolium multiflorum
# Procedure, shortened: as §1
# echinochloa crusgalli = details: for Fresh weight inhibition rate %, A single agent: post-emergence, 21 days after treatment; for Fresh weight suppression rate %, A single dose: Table 22
# Procedure, shortened: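 Greenhouse potted weeds sprayed post-emergence on stem and leaf at 3–4 leaf stage, with A and B alone or mixed; acetone solutions diluted in 0.1 wt% Tween-80, solvent-emulsifier water as blank.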
smiles,measurement,setting,value
CCOC(=O)C(C)(C)OC(=O)c1cc(-n2c(=O)cc(C(F)(F)F)n(C)c2=O)c(F)cc1Cl [Compound A-250],"Fresh weight inhibition rate %, A single agent",alopecurus japonicus; 15 g a.i./ha,39%
same,"Fresh weight inhibition rate %, A single agent",alopecurus japonicus; 20 g a.i./ha,49.17%
same,"Fresh weight inhibition rate %, A single agent",alopecurus japonicus; 25 g a.i./ha,55.39%
same,"Fresh weight inhibition rate %, A single agent","digitaria sanguinalis; Table 29, A 15 g a.i./ha",54.46%
same,"Fresh weight inhibition rate %, A single agent","digitaria sanguinalis; Table 29, A 20 g a.i./ha",61.09%
same,"Fresh weight inhibition rate %, A single agent","digitaria sanguinalis; Table 29, A 25 g a.i./ha",65.86%
same,"Fresh weight inhibition rate %, A single agent","digitaria sanguinalis; Table 29, A 30 g a.i./ha",71.11%
same,"Fresh weight inhibition rate %, A single agent","digitaria sanguinalis; Table 31, A 15 g a.i./ha",54.46%
same,"Fresh weight inhibition rate %, A single agent","digitaria sanguinalis; Table 31, A 20 g a.i./ha",61.09%
same,"Fresh weight inhibition rate %, A single agent","digitaria sanguinalis; Table 31, A 25 g a.i./ha",65.86%
same,"Fresh weight inhibition rate %, A single agent",eleusine indica; A 10 g a.i./ha,43.34%
same,"Fresh weight inhibition rate %, A single agent",eleusine indica; A 15 g a.i./ha,55.00%
same,"Fresh weight inhibition rate %, A single agent",eleusine indica; A 20 g a.i./ha,68.03%
same,"Fresh weight inhibition rate %, A single agent",eleusine indica; A 25 g a.i./ha,70.36%
same,"Fresh weight inhibition rate %, A single agent",eleusine indica; A 30 g a.i./ha,75.35%
same,"Fresh weight inhibition rate %, A single agent","lolium multiflorum; Table 34, A 15 g a.i./ha",55.00%
same,"Fresh weight inhibition rate %, A single agent","lolium multiflorum; Table 34, A 20 g a.i./ha",68.03%
same,"Fresh weight inhibition rate %, A single agent","lolium multiflorum; Table 34, A 25 g a.i./ha",70.36%
same,"Fresh weight inhibition rate %, A single agent","lolium multiflorum; Table 34, A 30 g a.i./ha",75.35%
same,"Fresh weight inhibition rate %, A single agent","lolium multiflorum; Table 38, A 10 g a.i./ha",43.34%
same,"Fresh weight inhibition rate %, A single agent","lolium multiflorum; Table 38, A 15 g a.i./ha",55.00%
same,"Fresh weight inhibition rate %, A single agent","lolium multiflorum; Table 38, A 20 g a.i./ha",68.03%
same,"Fresh weight inhibition rate %, A single agent","echinochloa crusgalli; Table 2, 15 g a.i./ha",26.41%
same,"Fresh weight inhibition rate %, A single agent","echinochloa crusgalli; Table 2, 20 g a.i./ha",30.73%
same,"Fresh weight inhibition rate %, A single agent","echinochloa crusgalli; Table 3, 20 g a.i./ha",30.73%
same,"Fresh weight inhibition rate %, A single agent","echinochloa crusgalli; Table 3, 25 g a.i./ha",31.56%
same,"Fresh weight inhibition rate %, A single agent","echinochloa crusgalli; Table 4, 15 g a.i./ha",26.41%
same,"Fresh weight inhibition rate %, A single agent","echinochloa crusgalli; Table 4, 20 g a.i./ha",30.73%
same,"Fresh weight inhibition rate %, A single agent","echinochloa crusgalli; Table 4, 25 g a.i./ha",31.56%
same,"Fresh weight suppression rate %, A single dose",echinochloa crusgalli; A 10 g a.i./ha,17.77%
same,"Fresh weight suppression rate %, A single dose",echinochloa crusgalli; A 15 g a.i./ha,26.41%
same,"Fresh weight suppression rate %, A single dose",echinochloa crusgalli; A 20 g a.i./ha,30.73%
same,"Fresh weight suppression rate %, A single dose",echinochloa crusgalli; A 25 g a.i./ha,31.56%
